Here are results for nine molecules from patent publication US9341616B2, “Sweet taste receptor chimeric proteins and use thereof” (AJINOMOTO CO., INC., priority 2014, dated 2016).

The target in assay [1] is hT1R2/T1R3mosaicB (UniProt Q8TE23+Q925D8, A558R/A588V/A645S/A698V/A702T/A793V/A807V/A88D/C582S/C678S/E725V/F541I/F612A/F622V/F695L/F71L/G86K/H728R/I152V/I617V/I706V/I740A/I803L/K555R/K565R/K818R/K827G/L151M/L560F/L684P/L68N/L72W/L735F/L823M/L825Q/M644L/M744T/M74L/N547G/N675D/P545F/P561R/P564S/P67S/Q123R/Q550E/Q611L/Q757R/Q795R/Q831P/R632Q/S112P/S124D/S576L/S595F/S610P/S635P/S637R/S679G/S717H/T109A/T542A/T663I/T694M/T813A/V120A/V573A/V584A/V718M/V723A/V729T/V738A/V805L/V812A/V821L/W599R/W676R/W824R/Y680C/Y794L). Particulars: Table 6; genes hT2/T1R3mB (hT1R2, T1R3mB); HEK293E cells. On the procedure:
(§1) The HEK293E cells maintained by using the DMEM/Ham's F-12 medium (Nakarai Tesque) containing 10% fetal bovine serum ([…]) and 1% Pen Strep (GIBCO) were washed with D-PBS(−) (Nakarai Tesque), and collected from the flask by using 0.25% Trypsin EDTA (GIBCO). The cells were centrifuged (1,200 rpm, 3 minutes), and after the supernatant was removed, suspended in 5% FBS DMEM/Ham's F-12 at a density of 0.75×10^7 cell/ml. This suspension (10 ml) was put into a […] (IWAKI), and culture was performed overnight (37° C., 5% CO2). On the next day, the medium was exchanged with Opti-MEM (30 ml, Invitrogen, Life Technologies), a sweet taste receptor gene mixture (Gα15-trans48LD gene, various kinds of T1R2 chimeric genes, and various kinds of T1R3 chimeric genes, 63.8 μg in total) prepared by using Opti-MEM and Lipofectamin 2000 (Invitrogen, Life Technologies) was slowly added to the cell suspension, and incubation was performed (37° C., 5% CO2) for 6 hours to attain gene transfer.
(§2) After the gene transfer, the cells were washed with D-PBS(−), then removed from the flask by using 0.25% Trypsin EDTA (GIBCO), and collected. After the cell number was counted, the cells were suspended in the 5% FBS DMEM medium (2.78 mM glucose, GIBCO) at a density of 0.5×10^6 cell/ml. This cell suspension was put into wells of D-Lysine coat 96-well plate (BD bioscience) in such a volume that the cell count is 7.0×10^4 cells/well, and the cells were cultured overnight.
(§3) After the culture, all the medium of the 96 wells were discarded. 200 μl of the staining solution for measurement of intracellular calcium ion′ Calcium Assay Kit Express (Molecular Device), diluted 80 times with an assay buffer (20 mM HEPES, 146 mM NaCl, 1 mM MgSO4, 1.39 mM glucose, 1 mM CaC12, 2.5 mM Probenecid, 0.05% bovine serum albumin) was added to each well, and the plate was left standing at 37° C. for 30 minutes and at room temperature for 45 minutes to perform staining. After the staining, 50 μl of a solution of stimulant (sweet taste substance) prepared with the assay buffer was added to each well, and the fluorescence value was measured for 120 seconds after the stimulation by using FDSSμEELL (Hamamatsu Photonics). By measuring the fluorescence value (Ex. 480 nm, Em. 540 nm) before and after the stimulation, the change of the intracellular free calcium ion concentration caused by addition of the stimulant via a sweet taste receptor was quantitatively investigated. The measurement and analysis of the fluorescence value was performed by using the software attached to FDSSμEELL (FDSS7000EX), and ΔF/F value was calculated in accordance with the following equation, and used for the evaluation. ΔF/F=(Maximum fluorescence value after stimulation−Minimum fluorescence value after stimulation)/(Fluorescence value before stimulation)
(§4) Furthermore, by using the ΔF/F values obtained when each sweet taste substance was added, the S/N ratio was calculated. Specifically, the S/N value was calculated by using the minimum value of ΔF/F obtained when each substance was added at various concentrations as noise (N) value, and the similarly obtained maximum value of ΔF/F as the signal (S) value, and used as an index for sensitivity of the measurement of the activity of each receptor. That is, a higher S/N value means a higher sensitivity for detection of an interaction of a sweet taste receptor and a test substance, which makes it easier to detect stimulation with a sweet taste substance or sweet taste-regulating substance of a lower concentration.
(§5) The sweet taste substances used as the stimulating substance are acesulfame potassium (Tokyo Kasei Kogyo), sodium saccharin (WAKO), sucralose (SIGMA), sucrose (WAKO), and neotame (SIGMA), as well as aspartame, advantame, and SC-45647 ([3-[(S)-1-phenylethyl]-2-(4-cyanophenyl)guanidino]acetic acid, which were all synthesized in-house.

Assay [2] addresses hT1R2/T1R3mosaicC (UniProt Q8TE23+Q925D8, A558R/A588V/A645S/A698V/A702T/A793V/A807V/C582S/C678S/D172E/D176A/D217E/E221Q/E725V/F541I/F612A/F622V/F695L/H728R/I617V/I706V/I740A/I803L/K555R/K565R/K818R/K827G/L560F/L684P/L735F/L823M/L825Q/M644L/M744T/N203E/N231A/N547G/N675D/P545F/P561R/P564S/Q195T/Q550E/Q611L/Q757R/Q795R/Q831P/R173L/R632Q/S168G/S205G/S228A/S576L/S595F/S610P/S635P/S637R/S679G/S717H/T199E/T542A/T663I/T694M/T813A/V197A/V198A/V573A/V584A/V718M/V723A/V729T/V738A/V805L/V812A/V821L/W599R/W676R/W824R/Y680C/Y794L). As to conditions: Table 6; genes hT2/T1R3mC (hT1R2, T1R3mC); HEK293E cells. How it is done:
as §1, §2, §3, §4, §5

The structures appear in SMILES notation. Residues, ends and D or L forms follow the SMILES beside them.

hT1R2/T1R3mosaicC, sequence (Q8TE23 20-839, stated change not applied): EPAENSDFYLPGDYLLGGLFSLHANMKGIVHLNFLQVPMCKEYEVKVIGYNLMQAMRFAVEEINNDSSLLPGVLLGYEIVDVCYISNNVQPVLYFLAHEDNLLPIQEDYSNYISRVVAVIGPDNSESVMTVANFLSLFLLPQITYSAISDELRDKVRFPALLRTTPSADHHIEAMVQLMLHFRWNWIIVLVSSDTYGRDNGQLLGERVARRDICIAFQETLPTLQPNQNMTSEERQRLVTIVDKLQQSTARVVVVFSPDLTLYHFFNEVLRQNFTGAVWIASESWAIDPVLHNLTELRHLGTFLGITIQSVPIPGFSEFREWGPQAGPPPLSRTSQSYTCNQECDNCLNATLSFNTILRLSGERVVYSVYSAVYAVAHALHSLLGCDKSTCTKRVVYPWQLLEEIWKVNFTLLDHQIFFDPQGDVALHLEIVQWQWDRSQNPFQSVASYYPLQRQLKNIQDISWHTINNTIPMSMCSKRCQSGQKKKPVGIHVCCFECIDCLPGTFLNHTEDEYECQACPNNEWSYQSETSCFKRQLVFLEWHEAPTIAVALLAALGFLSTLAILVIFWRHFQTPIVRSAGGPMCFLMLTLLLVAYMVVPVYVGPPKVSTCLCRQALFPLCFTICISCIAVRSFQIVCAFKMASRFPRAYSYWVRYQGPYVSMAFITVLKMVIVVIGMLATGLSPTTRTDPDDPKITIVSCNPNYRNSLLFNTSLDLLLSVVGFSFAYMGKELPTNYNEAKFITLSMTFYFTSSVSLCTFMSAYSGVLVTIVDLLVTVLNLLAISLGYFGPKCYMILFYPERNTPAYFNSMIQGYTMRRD
hT1R2/T1R3mosaicC, sequence (Q925D8 with tags, fused parts or gaps with the stated changes limits assumed): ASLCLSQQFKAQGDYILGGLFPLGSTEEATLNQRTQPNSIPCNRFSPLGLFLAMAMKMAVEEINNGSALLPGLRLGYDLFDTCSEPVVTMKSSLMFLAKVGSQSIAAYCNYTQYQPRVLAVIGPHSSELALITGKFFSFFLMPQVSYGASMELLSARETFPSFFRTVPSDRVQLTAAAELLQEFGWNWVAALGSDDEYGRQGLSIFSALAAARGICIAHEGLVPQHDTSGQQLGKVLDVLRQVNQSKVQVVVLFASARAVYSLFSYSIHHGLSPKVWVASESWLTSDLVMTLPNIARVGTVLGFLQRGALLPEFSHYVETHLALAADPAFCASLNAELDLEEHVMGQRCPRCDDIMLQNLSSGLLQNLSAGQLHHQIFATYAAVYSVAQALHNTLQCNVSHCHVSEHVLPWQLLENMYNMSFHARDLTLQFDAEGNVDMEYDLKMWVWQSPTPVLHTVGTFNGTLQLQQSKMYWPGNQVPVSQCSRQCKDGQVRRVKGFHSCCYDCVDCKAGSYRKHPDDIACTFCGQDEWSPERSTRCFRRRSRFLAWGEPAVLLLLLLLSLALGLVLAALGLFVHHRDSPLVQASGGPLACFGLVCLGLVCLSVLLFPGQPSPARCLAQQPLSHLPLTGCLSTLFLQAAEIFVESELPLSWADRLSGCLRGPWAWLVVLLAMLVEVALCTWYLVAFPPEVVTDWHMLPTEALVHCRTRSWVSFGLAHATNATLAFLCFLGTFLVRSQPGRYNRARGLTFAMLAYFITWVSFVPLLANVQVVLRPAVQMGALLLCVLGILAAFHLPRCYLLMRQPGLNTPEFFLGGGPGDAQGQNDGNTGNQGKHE
hT1R2/T1R3mosaicB, sequence (Q8TE23 20-839, stated change not applied): as the sequence (Q8TE23 20-839, stated change not applied) above
hT1R2/T1R3mosaicB, sequence (Q925D8 with tags, fused parts or gaps with the stated changes limits assumed): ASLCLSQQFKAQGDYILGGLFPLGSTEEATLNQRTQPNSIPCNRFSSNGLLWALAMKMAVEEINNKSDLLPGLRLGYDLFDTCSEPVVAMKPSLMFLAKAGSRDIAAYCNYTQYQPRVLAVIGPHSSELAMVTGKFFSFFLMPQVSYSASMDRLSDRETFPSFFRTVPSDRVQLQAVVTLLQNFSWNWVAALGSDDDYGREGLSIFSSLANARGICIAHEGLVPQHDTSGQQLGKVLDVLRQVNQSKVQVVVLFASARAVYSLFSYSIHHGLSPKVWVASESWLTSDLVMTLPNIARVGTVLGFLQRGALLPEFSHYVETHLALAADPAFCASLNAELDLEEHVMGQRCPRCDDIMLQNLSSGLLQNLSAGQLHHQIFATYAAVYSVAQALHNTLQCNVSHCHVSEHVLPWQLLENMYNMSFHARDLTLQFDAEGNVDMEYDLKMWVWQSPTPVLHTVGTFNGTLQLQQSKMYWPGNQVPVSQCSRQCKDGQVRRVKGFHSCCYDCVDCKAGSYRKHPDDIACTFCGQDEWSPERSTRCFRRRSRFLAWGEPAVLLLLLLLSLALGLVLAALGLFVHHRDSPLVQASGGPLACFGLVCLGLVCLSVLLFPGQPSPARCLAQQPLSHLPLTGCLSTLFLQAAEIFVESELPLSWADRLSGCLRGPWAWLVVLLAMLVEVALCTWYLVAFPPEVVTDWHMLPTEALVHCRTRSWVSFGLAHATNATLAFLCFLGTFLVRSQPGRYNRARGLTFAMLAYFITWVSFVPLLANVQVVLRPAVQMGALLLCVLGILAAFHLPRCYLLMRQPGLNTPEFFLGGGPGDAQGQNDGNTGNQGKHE

With `CC1=CC(=O)NS(=O)(=O)O1` [Acesulfame K, acesulfame potassium], the S/N in assay [1] was 5.5; in assay [2] it was 3.2.

On to `COC(=O)[C@H](Cc1ccccc1)NC(=O)[C@H](CC(=O)O)NCCCc1ccc(OC)c(O)c1` [Advantame, advantame], for which the S/N came out at 8.5 in assay [1] and 7.8 in assay [2].

For `COC(=O)[C@H](Cc1ccccc1)NC(=O)[C@@H](N)CC(=O)O` [Aspartame, aspartame] (HELM PEPTIDE1{D.F.[CO[*:1]]}$$$$V2.0), the S/N was found to be 5.4 in assay [1] and 4.5 in assay [2].

Consider `COc1ccc(CCC(=O)c2c(O)cc(O[C@@H]3O[C@H](CO)[C@@H](O)[C@H](O)[C@H]3O[C@@H]3O[C@@H](C)[C@H](O)[C@@H](O)[C@H]3O)cc2O)cc1O` [NHDC, neohesperidin dihydrochalcone], for which the S/N in assay [1] was 4.8; in assay [2] it was 3.8.

`COC(=O)[C@H](Cc1ccccc1)NC(=O)[C@H](CC(=O)O)NCCC(C)(C)C` [Neotame, neotame]: the S/N was 6.0 in assay [1] and 7.1 in assay [2].

For `C[C@H](NC(=Nc1ccc(C#N)cc1)NCC(=O)O)c1ccccc1` [SC-45647, [3-[(S)-1-phenylethyl]-2-(4-cyanophenyl)guanidino]acetic acid], the S/N turned out to be 7.0 in assay [1] and 5.4 in assay [2].

For the molecule `O=C1NS(=O)(=O)c2ccccc21.[Na]` [Saccharin Na, sodium saccharin], the S/N in assay [1] amounted to 5.4; in assay [2], 3.6.

`OC[C@H]1O[C@H](O[C@]2(CCl)O[C@H](CCl)[C@@H](O)[C@@H]2O)[C@H](O)[C@@H](O)[C@H]1Cl` [Sucralose, sucralose]: the S/N in assay [1] turned out to be 4.1; in assay [2] it was 5.7.

With `OC[C@H]1O[C@@](CO)(O[C@H]2O[C@H](CO)[C@@H](O)[C@H](O)[C@H]2O)[C@@H](O)[C@@H]1O` [Sucrose, sucrose], the S/N was determined as 4.7 in assay [1] and 3.4 in assay [2].
